Several values for one entry are separate records, joined by “and”; a condition that tells them apart may be missing. Identical values can stand only once.
Experiments:
Type in all cases: in vivo
[1] = test system: blackgrass (ALOMY, Alopecurus myosuroides); assay: Greenhouse postemergence trial, visual injury on blackgrass; conditions: Table 19
Description: (§1) Greenhouse Trial Methodology—Evaluation of Postemergence Herbicidal Safening in Crops
(§2) Seeds of the desired test plant species were planted in a 90:10% v/v (volume/volume) mixture of PRO-MIX® BX (Premier Tech Horticulture, Quakertown, PA, USA) and PROFILE® GREENS GRADE™ (Profile Products LLC, Buffalo Grove, IL, USA) planting mixture, which typically has a pH of 5.2 to 6.2 and an organic matter content of at least 50 percent, in plastic pots with a surface area of 103.2 square centimeters (cm^2). When required to ensure good germination and healthy plants, a fungicide treatment and/or other chemical or physical treatment was applied. The plants were grown for 7-36 days (d) in a greenhouse with an approximate 14-hour (h) photoperiod which was maintained at about 23° C. during the day and 22° C. during the night. Nutrients and water were added on a regular basis and supplemental lighting was provided with overhead metal halide 1000-Watt lamps as necessary. The plants were employed for testing when they reached the second or third true leaf stage.
(§3) Emulsifiable concentrates of each of each pyridine carboxylate herbicide (Compound A or Compound B) were prepared at 100 grams acid equivalent per liter (g ae/L). An aliquot of each emulsifiable concentrate was placed in a 25 mL glass vial and diluted with an aqueous mixture of 1.25% (v/v) ACTIROB® B esterified rapeseed oil (Bayer Crop Science, Research Triangle Park, NC, USA) or MSO® Concentrate with LECI-TECH® methylated soybean oil (Loveland Products, Loveland, CO, USA) to obtain concentrated stock solutions at the highest application rate for each herbicide, based upon a 12 milliliter (mL) application volume at a rate of 187 liters per hectare (L/ha). The concentrated stock solutions were further diluted with an aqueous mixture of 1.25% v/v ACTIROB® B or MSO® Concentrate with LECI-TECH® to obtain stock solutions at reduced application rates for each herbicide. Spray solutions of the herbicide combinations (Compound A or Compound B plus safener) were prepared by adding weighed amounts or aliquots of the safener to the stock solutions of Compound A or Compound B to form 12-mL spray solutions in two-way combinations. […]
(§4) The treated plants and control plants were placed in a greenhouse as described above and watered by sub-irrigation to prevent wash-off of the test compounds. After 20-22 d, the condition of the test plants as compared with that of the control plants was determined visually and scored on a scale of 0 to 100 percent where 0 corresponds to no injury and 100 corresponds to complete kill.

[2] = test system: Avena sativa (common oat), AVESA; assay: Greenhouse postemergence safening trial, visual injury on common oat
Description: (§5) Greenhouse Trial Methodology-Evaluation of Postemergence Herbicidal […] in Crops […] When required to ensure good germination and healthy plants, a fungicide treatment and/or other chemical or physical treatment was applied. The plants were grown for 7-36 days (d) in a greenhouse with an approximate 14-hour (h) photoperiod which was maintained at about 23° C. during the day and 22° C. during the night. Nutrients and water were added on a regular basis and supplemental lighting was provided with overhead metal halide 1000-Watt lamps as necessary. The plants were employed for testing when they reached the second or third true leaf stage. Emulsifiable concentrates of each of each pyridine carboxylate herbicide (Compound A or Compound B) were prepared at 100 grams acid equivalent per liter (g ae/L). […] The concentrated stock solutions were further diluted with an aqueous mixture of 1.25% […] or MSO® Concentrate with LECI-TECH® to obtain stock solutions at reduced application rates for each herbicide. Spray solutions of the herbicide combinations (Compound A or Compound B plus safener) were prepared by adding weighed amounts or aliquots of the safener to the stock solutions of Compound A or Compound B to form 12-mL spray solutions in two-way combinations. […] Control plants were sprayed in the same manner with the solvent blank. All herbicide (component a) application rates are given as “g ae/ha” and all safener (component b) application rates are given as “g ai/ha.” The treated plants and control plants were placed in a greenhouse as described above and watered by sub-irrigation to prevent wash-off of the test compounds.

[3] = test system: pigweed (AMARE, Amaranthus retroflexus); assay: Greenhouse postemergence trial, visual injury on pigweed
Description: as §1, §2
(§6) Emulsifiable concentrates of each of each pyridine carboxylate herbicide (Compound A or Compound B) were prepared at 100 grams acid equivalent per liter (g ae/L). An aliquot of each emulsifiable concentrate was placed in a 25 mL glass vial and diluted with an aqueous mixture of 1.25% (v/v) ACTIROB® B esterified rapeseed oil (Bayer Crop Science, Research Triangle Park, NC, USA) or MSO® Concentrate with LECI-TECH® methylated soybean oil (Loveland Products, Loveland, CO, USA) to obtain concentrated stock solutions at the highest application rate for each herbicide, based upon a 12 milliliter (mL) application volume at a rate of 187 liters per hectare (L/ha). The concentrated stock solutions were further diluted with an aqueous mixture of 1.25% v/v ACTIROB® B or MSO® Concentrate with LECI-TECH® to obtain stock solutions at reduced application rates for each herbicide. Spray solutions of the herbicide combinations (Compound A or Compound B plus safener) were prepared by adding weighed amounts or aliquots of the safener to the stock solutions of Compound A or Compound B to form 12-mL spray solutions in two-way combinations.
(§7) The spray solutions were applied to the plant material with an overhead Mandel track sprayer equipped with 8002E nozzles calibrated to deliver 187 L/ha over an application area of 0.503 square meters (m^2) at a spray height of 18 inches (43 centimeters (cm)) above the average plant canopy. Control plants were sprayed in the same manner with the solvent blank. All herbicide (component a) application rates are given as “g ae/ha” and all safener (component b) application rates are given as “g ai/ha.”
as §4

[4] = test system: Sinapis arvensis (wild mustard), SINAR; assay: Greenhouse postemergence trial, visual injury on wild mustard
Description: as §1, §2, §6, §7, §4

[5] = test system: common sunflower (HELAN, Helianthus annuus); assay: Greenhouse postemergence trial, visual injury on common sunflower
Description: as §1, §2, §6, §7, §4

[6] = test system: Hordeum vulgare (winter barley), HORVW; assay: Greenhouse postemergence safening trial, visual injury on winter barley
Description: as §5

[7] = test system: ivyleaf morningglory (IPOHE, Ipomoea hederacea); assay: Greenhouse postemergence trial, visual injury on ivyleaf morningglory; conditions: Table 19
Description: as §1, §2, §3, §4

[8] = test system: barnyardgrass (ECHCG, Echinochloa crus-galli); assay: Greenhouse postemergence trial, visual injury on barnyardgrass; conditions: Table 19
Description: as §1, §2, §3, §4

[9] = test system: common lambsquarters (CHEAL, Chenopodium album L.); assay: Greenhouse postemergence trial, visual injury on common lambsquarters; conditions: Table 19
Description: as §1, §2, §3, §4

[10] = test system: Canada horseweed (ERICA, Erigeron canadensis); assay: Greenhouse postemergence trial, visual injury on Canada horseweed; conditions: Table 19
Description: as §1, §2, §3, §4

[11] = test system: Fagopyrum esculentum (common buckwheat), FAGES; assay: Greenhouse postemergence trial, visual injury on common buckwheat
Description: as §1, §2, §6, §7, §4

[12] = CQC-mexyl 40 g/ha alone, Table 14
[13] = CQC-mexyl 20 g/ha alone, Table 17
[14] = CQC-mexyl 20 g/ha alone, Table 19
[15] = CQC-mexyl 40 g/ha alone, Table 17
[16] = CQC-mexyl 40 g/ha alone, Table 19
[17] = CQC-mexyl 80 g/ha alone, Table 17
[18] = CQC-mexyl 80 g/ha alone, Table 19
[19] = CQC-mexyl 120 g/ha alone, Table 17
[20] = CQC-mexyl 10 g/ha alone, Table 16
[21] = CQC-mexyl 20 g/ha alone, Table 16
[22] = CQC-mexyl 40 g/ha alone, Table 16
[23] = CQC-mexyl 80 g/ha alone, Table 16
[24] = Compound A 40 g/ha alone, Table 14
[25] = Compound A 20 g/ha alone, Table 19
[26] = Compound A 40 g/ha alone, Table 17
[27] = Compound A 40 g/ha alone, Table 18
[28] = Compound A 40 g/ha alone, Table 16

In the case of `CCCCCC(C)OC(=O)COc1ccc(Cl)c2cccnc12` (centres unmarked) [CQC-mexyl, cloquintocet-mexyl], the “% visual injury, Ob” value ([1]; CQC-mexyl 20 g/ha alone) is reported as 0%, the “% visual injury, Ob” value ([1]; CQC-mexyl 40 g/ha alone) is reported as 0% and the “% visual injury, Ob” value ([1]; CQC-mexyl 80 g/ha alone) is reported as 0%. The “% visual injury, Ob” value [2, 12] was 0%, the “% visual injury, Ob” value ([2]; safener alone 40 g/ha) was 0% and the “% visual injury, Ob” value [3, 13] was 0%. The “% visual injury, Ob” value [3, 14] was 0%, the “% visual injury, Ob” value [3, 15] was 0% and the “% visual injury, Ob” value [3, 16] was 0%. For the same compound, the “% visual injury, Ob” value [3, 17] was 0%, the “% visual injury, Ob” value [3, 18] was 0% and the “% visual injury, Ob” value [3, 19] was 0%. For the same compound, the “% visual injury, Ob” value [4, 20] was 0%, the “% visual injury, Ob” value [4, 21] was 0% and the “% visual injury, Ob” value [4, 22] was 0%. For the same compound, the “% visual injury, Ob” value [4, 23] was 0%, the “% visual injury, Ob” value ([4]; safener alone 5 g/ha) was 0% and the “% visual injury, Ob” value ([4]; safener alone 10 g/ha) was 0%. For the same compound, the “% visual injury, Ob” value ([4]; safener alone 20 g/ha) was 0%, the “% visual injury, Ob” value ([4]; safener alone 40 g/ha) was 0% and the “% visual injury, Ob” value [5, 13] was 0%. For the same compound, the “% visual injury, Ob” value [5, 14] was 0%, the “% visual injury, Ob” value [5, 15] was 0% and the “% visual injury, Ob” value [5, 16] was 0%. For the same compound, the “% visual injury, Ob” value [5, 17] was 0%, the “% visual injury, Ob” value [5, 18] was 0% and the “% visual injury, Ob” value [5, 19] was 0%. The “% visual injury, Ob” value ([6]; CQC-mexyl 5 g/ha alone, Table 15) was 0%, the “% visual injury, Ob” value ([6]; CQC-mexyl 10 g/ha alone, Table 15) was 0% and the “% visual injury, Ob” value [6, 20] was 0%. For the same compound, the “% visual injury, Ob” value ([6]; CQC-mexyl 20 g/ha alone, Table 15) was 0%, the “% visual injury, Ob” value [6, 21] was 0% and the “% visual injury Δ” value [6, 12] was 0%. For the same compound, the “% visual injury, Ob” value [6, 12] was 0%, the “% visual injury, Ob” value ([6]; CQC-mexyl 40 g/ha alone, Table 15) was 0% and the “% visual injury, Ob” value [6, 22] was 0%. For the same compound, the “% visual injury, Ob” value [6, 23] was 0%, the “% visual injury Δ” value ([6]; safener alone 40 g/ha) was 0% and the “% visual injury, Ob” value ([6]; safener alone 40 g/ha) was 0%. For the same compound, the “% visual injury, Ob” value ([7]; CQC-mexyl 20 g/ha alone) was 0%, the “% visual injury, Ob” value ([7]; CQC-mexyl 40 g/ha alone) was 0% and the “% visual injury, Ob” value ([7]; CQC-mexyl 80 g/ha alone) was 0%. The “% visual injury, Ob” value ([8]; CQC-mexyl 20 g/ha alone) was 0%, the “% visual injury, Ob” value ([8]; CQC-mexyl 40 g/ha alone) was 0% and the “% visual injury, Ob” value ([8]; CQC-mexyl 80 g/ha alone) was 0%. The “% visual injury, Ob” value ([9]; CQC-mexyl 20 g/ha alone) was 0%, the “% visual injury, Ob” value ([9]; CQC-mexyl 40 g/ha alone) was 0% and the “% visual injury, Ob” value ([9]; CQC-mexyl 80 g/ha alone) was 0%. The “% visual injury, Ob” value ([10]; CQC-mexyl 20 g/ha alone) was 0%, the “% visual injury, Ob” value ([10]; CQC-mexyl 40 g/ha alone) was 0% and the “% visual injury, Ob” value ([10]; CQC-mexyl 80 g/ha alone) was 0%. For the same compound, the “% visual injury, Ob” value ([11]; safener alone 5 g/ha) was 0%, the “% visual injury, Ob” value ([11]; safener alone 10 g/ha) was 0% and the “% visual injury, Ob” value ([11]; safener alone 20 g/ha) was 0%. The “% visual injury, Ob” value ([11]; safener alone 40 g/ha) was 0%.
With `N#CCOC(=O)c1nc(-c2ccc3cc[nH]c3c2F)c(F)c(N)c1Cl` [Compound A, cyanomethyl 4-amino-3-chloro-5-fluoro-6-(7-fluoro-1H-indol-6-yl)pyridine-2-carboxylate] the “% visual injury, Ob” value ([1]; Compound A 20 g/ha alone) was 0%, the “% visual injury, Ob” value [2, 24] was 0% and the “% visual injury, Ob” value ([2]; herbicide alone 40 g/ha) was 0%. For the same compound, the “% visual injury, Ob” value [3, 25] was 93%, the “% visual injury, Ob” value [3, 26] was 100% and the “% visual injury, Ob” value [3, 27] was 100%. The “% visual injury, Ob” value [4, 28] was 99%, the “% visual injury, Ob” value ([4]; herbicide alone 40 g/ha) was 99% and the “% visual injury, Ob” value [5, 25] was 95%. The “% visual injury, Ob” value [5, 26] was 100%, the “% visual injury, Ob” value [5, 27] was 100% and the “% visual injury, Ob” value ([6]; Compound A 20 g/ha alone, Table 15) was 15%. For the same compound, the “% visual injury Δ” value [6, 24] was 0%, the “% visual injury, Ob” value [6, 24] was 40% and the “% visual injury, Ob” value [6, 28] was 30%. The “% visual injury, Ob” value ([6]; herbicide alone 20 g/ha) was 15%, the “% visual injury Δ” value ([6]; herbicide alone 40 g/ha) was 0% and the “% visual injury, Ob” value ([6]; herbicide alone 40 g/ha) was 40% and 30%. The “% visual injury, Ob” value ([7]; Compound A 20 g/ha alone) was 0%, the “% visual injury, Ob” value ([8]; Compound A 20 g/ha alone) was 85% and the “% visual injury, Ob” value ([9]; Compound A 20 g/ha alone) was 88%. For the same compound, the “% visual injury, Ob” value ([10]; Compound A 20 g/ha alone) was 95%.
